We go through two molecules from US6413968B1, “Treatment of myasthenia gravis by cyclic nucleotide phosphodiesterase inhibition” (priority 2000, dated 2002).

Bounds are passed on as bounds.

The test deals with diplopia and ptosis. Put plainly: Case report: patient with vertical diplopia and right ptosis treated orally. The class given is in vivo, human. From the text: A person presented with a three-week history of vertical diplopia that was incomitant and right ptosis.

As for `CN(C)C(=O)Oc1ccc[n+](C)c1` [Mestinon], the “relief of diplopia and ptosis” value (patient, three-week history of vertical diplopia and right ptosis, 60 mg three times daily) is “failed to relieve the diplopia or the ptosis”. For `CCCc1nn(C)c2c(=O)[nH]c(-c3cc(S(=O)(=O)N4CCN(C)CC4)ccc3OCC)nc12` [Sildenafil], where the note is “same patient, after Mestinon failure, 25 mg tab four times daily”, the “resolution of diplopia and ptosis” value is “immediate resolution of dipolopia and ptosis”. The “time to resolution of diplopia and ptosis” value (same patient, 25 mg tab four times daily) is not above 24 h.
